The values that follow come from US7794995B2, “Purified PKB Ser 473 kinase and uses thereof” (priority 2002, dated 2010).

“Also recorded” adds a separate entry of the source.

Assay [1] relates to PKB Ser473 kinase. The following applies: second kinase activity, taken to be the PKB Ser473 kinase; 0-100 microM tested.
Assay [2] concerns PKB Ser473 phosphorylation. Conditions: literature: Hill et al. 2001; Alessi et al. 1996; cited from earlier work.
The target in the next assay is T1, PDK1 (Homo sapiens, UniProt O15530).
T1 sequence (O15530 1-556): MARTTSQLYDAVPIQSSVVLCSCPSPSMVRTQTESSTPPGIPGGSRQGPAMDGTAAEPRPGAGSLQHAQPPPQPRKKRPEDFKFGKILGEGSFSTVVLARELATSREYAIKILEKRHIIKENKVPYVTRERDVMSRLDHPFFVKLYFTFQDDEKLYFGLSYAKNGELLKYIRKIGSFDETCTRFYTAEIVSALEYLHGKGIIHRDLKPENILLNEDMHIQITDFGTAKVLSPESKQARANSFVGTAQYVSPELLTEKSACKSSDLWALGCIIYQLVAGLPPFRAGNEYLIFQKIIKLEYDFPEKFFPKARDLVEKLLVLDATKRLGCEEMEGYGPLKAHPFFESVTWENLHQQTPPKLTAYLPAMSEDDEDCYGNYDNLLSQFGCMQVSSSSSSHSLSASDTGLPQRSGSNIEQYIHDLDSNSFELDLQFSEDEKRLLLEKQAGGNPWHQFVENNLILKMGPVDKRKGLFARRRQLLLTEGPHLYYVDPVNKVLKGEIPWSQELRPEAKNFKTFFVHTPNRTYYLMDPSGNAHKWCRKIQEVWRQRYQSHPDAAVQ
The following applies: literature: Hill et al. 2001; cited from earlier work.

Assay [3] relates to PKB Ser473 kinase. The assay can be described thus: Ser473 kinase activity (FSY/FAY peptide assay) in subcellular fractions of treated serum-starved HEK293 cells. The assay is classed as cell-based, human. The following applies: 0.1 microM insulin, pervanadate 0.1 mM, 10 mins, LY294002 50 microM, 30 mins, versus basal. The protocol:
HEK 293 cells transiently transfected with the PKB constructs were serum starved, stimulated or not with 0.1 mM pervanadate for 10 min at 37° C., and subcellular fractions were generated. Briefly, HEK 293 cells were washed once in ice-cold phosphate-buffered saline, and scraped in ice-cold fractionation buffer containing 20 mM HEPES-NaOH, pH 7.4, 250 mM sucrose, phosphatase inhibitors (10 mM sodium fluoride, 1 mM sodium pyrophosphate, 0.1 mM sodium orthovanadate, 2 μM microcystin LR [Alexis]), and protease inhibitors (1 mM PMSF and 1 mM benzamidine). After homogenization either by 10 passes through a 26-gauge needle, or by using a Kinematica homogenizer (10 strokes on speed 2 followed by 30 strokes on speed 10), subcellular fractions were prepared as previously described (Hill and Hemmings, 2002, Methods Enzymol 345: 448-463). The plasma membrane pellets were resuspended in 50 mM Tris-HCl (pH7.4) containing protease and phosphatase inhibitors as described above. Protein concentration of the subcellular fractions was determined by the Bradford method (Bio-Rad), using bovine serum albumin as standard. […]
Next, it was examined if membrane-associated Ser473 kinase activity was dependent on PI3-kinase signalling. […] PM fractions were assayed for Ser473 kinase activity, and also analyzed by immunoblotting for phospho-PKB and total PKB.

The test system of assay [4] is PKB phosphorylation on Thr308 and Ser473. The assay can be described thus: Immunoblotting of plasma membrane fractions for phospho-PKB and total PKB after cell treatment. The assay is classed as cell-based, human. Conditions: serum-starved HEK293 cells, immunoblot; for PKB phosphorylation on Thr308 and Ser473: 0.1 microM insulin, pervanadate 0.1 mM, 10 mins. The protocol: The presence of PKB in each fraction was determined by immunoblotting with an anti-HA antibody (12CA5). In addition, the phosphorylation status of PKB in each of the fractions was assessed by immunoblotting with phospho-specific PKB antibodies after immunoprecipitation with the HA antibody. Briefly, following SDS-PAGE, proteins were transferred onto Immobilon-P membranes (Millipore). Non-specific signals were blocked by incubating the membrane in TBST buffer (50 mM Tris-HCl, pH 7.4, 150 mM NaCl, 0.1% Tween-20) containing 5% skim milk for 1 hour at room temperature. Incubation with antibodies was performed in TBST for phospho-specific antibodies, TBST containing 1% skim milk for polyclonal antibodies and TBST containing 5% skim milk for monoclonal antibodies, at 4° C. overnight. Antibodies specific for PKB phosphorylated on Thr308 are commercially available (Cell Signalling Technologies). Antibodies specific for PKB phosphorylated on Ser473 was produced and purified as previously described (Hill and Hemmings, 2002, Methods Enzymol 345: 448-463). Pan-PKB antibody has been previously described (Jones et al., 1991, Proc Natl Acad Sci USA 88: 4171-4175).
Next, it was examined if membrane-associated Ser473 kinase activity was dependent on PI3-kinase signalling. Serum-starved HEK293 cells were treated with 0.1 microM insulin, the insulin mimetic pervanadate (0.1 mM, 10 mins.), the PI 3-kinase inhibitor LY294002 (50 microM, 30 mins.), or left untreated. PM fractions were assayed for Ser473 kinase activity, and also analyzed by immunoblotting for phospho-PKB and total PKB.
In general terms: Immunoblotting shows a protein as a band on a membrane.

A further assay deals with PKBα. The experiment in a line: Subcellular fractionation of HEK 293 cells transfected with PKB constructs, anti-HA immunoblotting. The assay is classed as cell-based, human. Conditions: 0.1 mM pervanadate, 10 min, 37° C., serum-starved transfected HEK 293 cells. The text has this: In order to characterize and purify the PKB Ser473 kinase, we reasoned that the kinase might be constitutively active at the plasma membrane (PM). To this end, we developed a subcellular fractionation protocol to generate fractions enriched in the PM. To determine the efficacy of the procedure, the fractionation behavior of products of two PKB constructs was examined: hemagglutinin (HA) tagged PKBα (HA-PKBα) and HA-PKBα containing a myristoylation/palmitylation signal (m/p-HA-PKBα).
HEK 293 cells transiently transfected with the PKB constructs were serum starved, stimulated or not with 0.1 mM pervanadate for 10 min at 37° C., and subcellular fractions were generated. […] Protein concentration of the subcellular fractions was determined by the Bradford method (Bio-Rad), using bovine serum albumin as standard. […]
The presence of PKB in each fraction was determined by immunoblotting with an anti-HA antibody (12CA5). In addition, the phosphorylation status of PKB in each of the fractions was assessed by immunoblotting with phospho-specific PKB antibodies after immunoprecipitation with the HA antibody. […]

For the molecule `CN[C@@H]1C[C@H]2O[C@@](C)([C@@H]1OC)n1c3ccccc3c3c4c(c5c6ccccc6n2c5c31)C(=O)NC4` [staurosporine], the “Staurosporine concentration up to which the kinase activity is insensitive” value in the assay on PKB Ser473 kinase [1] is above 100 µM. Besides, in assay [2], the “Sensitivity of insulin-stimulated PKB Ser473 phosphorylation to the inhibitor” value was “staurosporine-insensitive; also recorded: not sensitive”. For the same molecule, on PDK1, the “Effect on PDK1” value is given as “inhibits PDK1”.

As to insulin, in the assay on PKB Ser473 kinase [3], the “Ser473 kinase activity in plasma membrane fractions” value is listed as “neither stimuli increased Ser473 kinase activity above basal levels”. For the same molecule, the “PKB phosphorylation on Thr308 and Ser473” value in assay [4] is “induced PKB phosphorylation on both Thr308 and Ser473”.

In the case of pervanadate, the “Ser473 kinase activity in plasma membrane fractions” value with PKB Ser473 kinase [3] is “neither stimuli increased Ser473 kinase activity above basal levels”. Also, in assay [4], the “PKB phosphorylation on Thr308 and Ser473” value is “induced PKB phosphorylation on both Thr308 and Ser473”; the “Potency as activator of PKB phosphorylation compared with insulin” value was “more potent activator of PKB phosphorylation than insulin”. Besides, in the assay with PKBα, the “Translocation of membrane-targeted m/p-HA-PKBα” value is on record as “no translocation was observed” and the “Translocation of wild type HA-PKBα to the plasma membrane fraction” value is on record as “A portion of PKBα translocated to the PM fraction”.
